Source: patent US20150105252A1, “SUBSTITUTED PYRAZOLES AS HERBICIDES” (E I DU PONT DE NEMOURS AND COMPANY, priority 2013, published 2015)

Legend:
nightshade = test: Test C preemergence; type: in vivo, Solanum ptycanthum; settings: for Plant response rating (scale of 0 to 100), Nightshade: Preemergence, 250 g ai/ha; for Nightshade plant response rating / Plant response rating, Nightshade: preemergence; for Plant response rating, Nightshade: 62 g ai/ha, scale 0 to 100, 0 = no effect, 100 = complete control
Text: Seeds of plant species selected from blackgrass (Alopecurus myosuroides), ryegrass, Italian (Italian ryegrass, Lolium multiflorum), wheat (winter wheat, Triticum aestivum), galium (catchweed bedstraw, Galium aparine), corn (Zea mays), crabgrass, large (large crabgrass, Digitaria sanguinalis), foxtail, giant (giant foxtail, Setaria faberii), johnsongrass (Sorghum halepense), lambsquarters (Chenopodium album), morningglory (Ipomoea coccinea), nutsedge, yellow (yellow nutsedge, Cyperus esculentus), pigweed (redroot pigweed, Amaranthus retroflexus), ragweed (common ragweed, Ambrosia elation), soybean (Glycine max), barnyardgrass (Echinochloa crus-galli), oilseed rape (Brassica napus), waterhemp (common waterhemp, Amaranthus rudis), oat, wild (wild oat, Avena fatua), kochia (Kochia scoparia), Surinam grass (Brachiaria decumbens), foxtail, green (green foxtail, Setaria viridis), goosegrass (Eleusine indica), bromegrass, downy (downy bromegrass, Bromus tectorum), nightshade (eastern black nightshade, Solanum ptycanthum), cocklebur (common cocklebur, Xanthium strumarium), cupgrass, woolly (woolly cupgrass, Eriochloa villosa), bermudagrass (Cynodon dactylon), sunflower, (common oilseed sunflower, Helianthus annuus), Russian thistle (Salsola kali), and velvetleaf (Abutilon theophrasti) were planted into a blend of loam soil and sand and treated preemergence with test chemicals formulated in a non-phytotoxic solvent mixture which included a surfactant.
At the same time, plants selected from these crop and weed species and also chickweed (common chickweed, Stellaria media), canarygrass (littleseed canarygrass, Phalaris minor), and deadnettle (henbit deadnettle, Lamium amplexicaule), were planted in pots containing Redi-Earth® planting medium (Scotts Company, 14111 Scottslawn Road, Marysville, Ohio 43041) comprising spaghnum peat moss, vermiculite, wetting agent and starter nutrients and treated with postemergence applications of test chemicals formulated in the same manner. Plants ranged in height from 2 to 18 cm (1- to 4-leaf stage) for postemergence treatments. Treated plants and controls were maintained in a greenhouse for 13 to 15 days, after which time all species were compared to controls and visually evaluated. Plant response ratings, summarized in Table C, are based on a scale of 0 to 100 where 0 is no effect and 100 is complete control. A dash (-) response means no test result.

bluegrass = test: Test D preemergence; type: in vivo, Poa annua; settings: for Plant response rating (scale 0 to 100), Bluegrass: 16 g ai/ha, taken as preemergence; for Plant response rating, Bluegrass: Preemergence, scale 0 to 100
Method in brief: (§1)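 Formulation was a non-phytotoxic solvent mixture plus surfactant, applied either to soil at planting (silt loam, preemergence) or to foliage of 2–18 cm plants (postemergence). Visual evaluation versus controls followed at 14–21 days, scored 0–100.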

ryegrass, Italian [1] = test: Test D preemergence; type: in vivo, Lolium multiflorum; settings: for Plant response rating (scale 0 to 100), Ryegrass, Italian: 16 g ai/ha, taken as preemergence; for Plant response rating, Ryegrass, Italian: Preemergence, scale 0 to 100
Method in brief: as §1

pigweed = test: Test D preemergence; type: in vivo, Amaranthus retroflexus; settings: for Plant response rating, Pigweed: Preemergence, scale 0 to 100
Method in brief: as §1

radish, wild = test: Test D preemergence; type: in vivo, Raphanus raphanistrum; settings: for Plant response rating (scale 0 to 100), Radish, Wild: 16 g ai/ha, taken as preemergence; for Plant response rating, Radish, Wild: Preemergence, scale 0 to 100
Method in brief: as §1

chickweed = test: Test D postemergence; type: in vivo, Stellaria media; settings: scale 0 to 100; for Plant response rating, Chickweed: 16 g ai/ha
Method in brief: as §1

deadnettle = test: Test D postemergence; type: in vivo, Lamium amplexicaule; settings: scale 0 to 100; for Plant response rating, Deadnettle: 16 g ai/ha
Method in brief: as §1

ryegrass, Italian [2] = test: Test D postemergence; type: in vivo, Lolium multiflorum; settings: scale 0 to 100; for Plant response rating, Ryegrass, Italian: 16 g ai/ha
Method in brief: as §1

wheat, spring = test: Test D postemergence; type: in vivo, Triticum aestivum; settings: scale 0 to 100; for Plant response rating, Wheat, Spring: 16 g ai/ha
Method in brief: as §1

wheat, winter = test: Test D postemergence; type: in vivo, Triticum aestivum; settings: scale 0 to 100; for Plant response rating, Wheat, Winter: 16 g ai/ha
Method in brief: as §1

[3] = 31 g ai/ha, scale 0 to 100 (0 no effect, 100 complete control), 13 to 15 days
[4] = 125 g ai/ha, scale 0 to 100, 0 is no effect, 100 is complete control

With `Cc1cc(C(=O)NCC(F)(F)F)nn1Cc1ccnc(C(F)(F)F)c1` [Compound 74] the “Plant response rating (scale of 0 to 100), Nightshade” value (nightshade) was 98, the “Nightshade plant response rating” value (nightshade; [3]) was 90 and the “Plant response rating, Nightshade” value (nightshade; 13 to 15 days) was 90. For the same compound, the “Nightshade plant response rating” value (nightshade; [4]) was 95, the “Plant response rating (scale 0 to 100), Bluegrass” value (bluegrass) was 0 and the “Plant response rating, Bluegrass” value (bluegrass; 31 g ai/ha) was 0. The “Plant response rating, Bluegrass” value (bluegrass; 62 g ai/ha) was 0, the “Plant response rating, Bluegrass” value (bluegrass; 125 g ai/ha) was 5 and the “Plant response rating (scale 0 to 100), Ryegrass, Italian” value (ryegrass, Italian [1]) was 0. The “Plant response rating, Ryegrass, Italian” value (ryegrass, Italian [1]; 31 g ai/ha) was 0, the “Plant response rating, Ryegrass, Italian” value (ryegrass, Italian [1]; 62 g ai/ha) was 0 and the “Plant response rating, Ryegrass, Italian” value (ryegrass, Italian [1]; 125 g ai/ha) was 0. For the same compound, the “Plant response rating (scale 0 to 100), Pigweed” value (pigweed; 16 g ai/ha, taken as preemergence) was 15, the “Plant response rating, Pigweed” value (pigweed; 31 g ai/ha) was 30 and the “Plant response rating, Pigweed” value (pigweed; 62 g ai/ha) was 70. For the same compound, the “Plant response rating, Pigweed” value (pigweed; 125 g ai/ha) was 100, the “Plant response rating (scale 0 to 100), Radish, Wild” value (radish, wild) was 0 and the “Plant response rating, Radish, Wild” value (radish, wild; 31 g ai/ha) was 15. For the same compound, the “Plant response rating, Radish, Wild” value (radish, wild; 62 g ai/ha) was 75, the “Plant response rating, Radish, Wild” value (radish, wild; 125 g ai/ha) was 100 and the “Plant response rating, Chickweed” value (chickweed; Postemergence) was 15. For the same compound, the “Chickweed plant response rating” value (chickweed; Postemergence, 31 g ai/ha) was 35, the “Chickweed plant response rating” value (chickweed; Postemergence, 125 g ai/ha) was 65 and the “Chickweed plant response rating” value (chickweed; postemergence, 62 g ai/ha) was 25. For the same compound, the “Plant response rating, Deadnettle” value (deadnettle; Postemergence) was 10, the “Deadnettle plant response rating” value (deadnettle; Postemergence, 31 g ai/ha) was 15 and the “Deadnettle plant response rating” value (deadnettle; Postemergence, 125 g ai/ha) was 30. For the same compound, the “Deadnettle plant response rating” value (deadnettle; postemergence, 62 g ai/ha) was 20, the “Plant response rating, Ryegrass, Italian” value (ryegrass, Italian [2]; Postemergence) was 0 and the “Ryegrass, Italian plant response rating” value (ryegrass, Italian [2]; Postemergence, 31 g ai/ha) was 5. For the same compound, the “Ryegrass, Italian plant response rating” value (ryegrass, Italian [2]; Postemergence, 125 g ai/ha) was 10, the “Ryegrass, Italian plant response rating” value (ryegrass, Italian [2]; postemergence, 62 g ai/ha) was 5 and the “Plant response rating, Wheat, Spring” value (wheat, spring; Postemergence) was 0. For the same compound, the “Wheat, Spring plant response rating” value (wheat, spring; Postemergence, 31 g ai/ha) was 0, the “Wheat, Spring plant response rating” value (wheat, spring; Postemergence, 125 g ai/ha) was 5 and the “Wheat, Spring plant response rating” value (wheat, spring; postemergence, 62 g ai/ha) was 0. For the same compound, the “Plant response rating, Wheat, Winter” value (wheat, winter; Postemergence) was 0, the “Wheat, Winter plant response rating” value (wheat, winter; Postemergence, 31 g ai/ha) was 0 and the “Wheat, Winter plant response rating” value (wheat, winter; Postemergence, 125 g ai/ha) was 0. For the same compound, the “Wheat, Winter plant response rating” value (wheat, winter; postemergence, 62 g ai/ha) was 0.

`CCONC(=O)c1cc(CC)n(Cc2cccc(OC(F)(F)F)c2)n1` [Compound 72] was tested, and the “Plant response rating (scale of 0 to 100), Nightshade” value (nightshade) was 100, the “Nightshade plant response rating” value (nightshade; [3]) was 75 and the “Plant response rating, Nightshade” value (nightshade; 13 to 15 days) was 98. For the same compound, the “Nightshade plant response rating” value (nightshade; [4]) was 98.

For `CCc1cc(C(=O)NOC(C)C)nn1Cc1cccc(OC(F)(F)F)c1` [Compound 70], the “Plant response rating (scale of 0 to 100), Nightshade” value (nightshade) was 98, the “Nightshade plant response rating” value (nightshade; [3]) was 70 and the “Plant response rating, Nightshade” value (nightshade; 13 to 15 days) was 98. The “Nightshade plant response rating” value (nightshade; [4]) was 98, the “Plant response rating (scale 0 to 100), Bluegrass” value (bluegrass) was 0 and the “Plant response rating, Bluegrass” value (bluegrass; 31 g ai/ha) was 0. The “Plant response rating, Bluegrass” value (bluegrass; 62 g ai/ha) was 0, the “Plant response rating, Bluegrass” value (bluegrass; 125 g ai/ha) was 0 and the “Plant response rating, Bluegrass” value (bluegrass; 250 g ai/ha) was 10. For the same compound, the “Plant response rating (scale 0 to 100), Ryegrass, Italian” value (ryegrass, Italian [1]) was 0, the “Plant response rating, Ryegrass, Italian” value (ryegrass, Italian [1]; 31 g ai/ha) was 0 and the “Plant response rating, Ryegrass, Italian” value (ryegrass, Italian [1]; 62 g ai/ha) was 0. The “Plant response rating, Ryegrass, Italian” value (ryegrass, Italian [1]; 125 g ai/ha) was 20, the “Plant response rating, Ryegrass, Italian” value (ryegrass, Italian [1]; 250 g ai/ha) was 75 and the “Plant response rating, Pigweed” value (pigweed; 62 g ai/ha) was 0. The “Plant response rating, Pigweed” value (pigweed; 250 g ai/ha) was 75, the “Plant response rating (scale 0 to 100), Radish, Wild” value (radish, wild) was 0 and the “Plant response rating, Radish, Wild” value (radish, wild; 31 g ai/ha) was 0. The “Plant response rating, Radish, Wild” value (radish, wild; 62 g ai/ha) was 0, the “Plant response rating, Radish, Wild” value (radish, wild; 125 g ai/ha) was 100 and the “Plant response rating, Radish, Wild” value (radish, wild; 250 g ai/ha) was 100. The “Plant response rating, Chickweed” value (chickweed; Postemergence) was 30, the “Chickweed plant response rating” value (chickweed; Postemergence, 31 g ai/ha) was 30 and the “Chickweed plant response rating” value (chickweed; Postemergence, 125 g ai/ha) was 70. For the same compound, the “Chickweed plant response rating” value (chickweed; Postemergence, 250 g ai/ha) was 85, the “Chickweed plant response rating” value (chickweed; postemergence, 62 g ai/ha) was 70 and the “Plant response rating, Deadnettle” value (deadnettle; Postemergence) was 0. The “Deadnettle plant response rating” value (deadnettle; Postemergence, 31 g ai/ha) was 10, the “Deadnettle plant response rating” value (deadnettle; Postemergence, 125 g ai/ha) was 30 and the “Deadnettle plant response rating” value (deadnettle; Postemergence, 250 g ai/ha) was 60. For the same compound, the “Deadnettle plant response rating” value (deadnettle; postemergence, 62 g ai/ha) was 10, the “Plant response rating, Ryegrass, Italian” value (ryegrass, Italian [2]; Postemergence) was 0 and the “Ryegrass, Italian plant response rating” value (ryegrass, Italian [2]; Postemergence, 31 g ai/ha) was 0. The “Ryegrass, Italian plant response rating” value (ryegrass, Italian [2]; Postemergence, 125 g ai/ha) was 10, the “Ryegrass, Italian plant response rating” value (ryegrass, Italian [2]; Postemergence, 250 g ai/ha) was 15 and the “Ryegrass, Italian plant response rating” value (ryegrass, Italian [2]; postemergence, 62 g ai/ha) was 0. The “Plant response rating, Wheat, Spring” value (wheat, spring; Postemergence) was 0, the “Wheat, Spring plant response rating” value (wheat, spring; Postemergence, 31 g ai/ha) was 5 and the “Wheat, Spring plant response rating” value (wheat, spring; Postemergence, 125 g ai/ha) was 5. For the same compound, the “Wheat, Spring plant response rating” value (wheat, spring; Postemergence, 250 g ai/ha) was 10, the “Wheat, Spring plant response rating” value (wheat, spring; postemergence, 62 g ai/ha) was 5 and the “Plant response rating, Wheat, Winter” value (wheat, winter; Postemergence) was 0. For the same compound, the “Wheat, Winter plant response rating” value (wheat, winter; Postemergence, 31 g ai/ha) was 0, the “Wheat, Winter plant response rating” value (wheat, winter; Postemergence, 125 g ai/ha) was 5 and the “Wheat, Winter plant response rating” value (wheat, winter; Postemergence, 250 g ai/ha) was 10. For the same compound, the “Wheat, Winter plant response rating” value (wheat, winter; postemergence, 62 g ai/ha) was 5.
